Reference: patent US20240108006A1, “PESTICIDALLY ACTIVE HETEROAROMATIC COMPOUNDS” (SYNGENTA CROP PROTECTION AG, priority 2021, published 2024)

How the values were obtained:
Assay type in all cases: in vivo
Myzus persicae [1] = experiment: Example B5: Myzus persicae (green peach aphid), feeding/contact activity; conditions: 144 h, application rate of 200 ppm, 6 days after infestation
Procedure: Example B5: Myzus persicae (Green Peach Aphid):Feeding/Contact Activity
Sunflower leaf discs were placed onto agar in a 24-well microtiter plate and sprayed with aqueous test solutions prepared from 10,000 ppm DMSO stock solutions. After drying, the leaf discs were infested with an aphid population of mixed ages. The samples were assessed for mortality 6 days after infestation.

Chilo suppressalis = experiment: Example B1: Chilo suppressalis (striped rice stemborer), artificial diet, L2 larvae; conditions: 144 h, application rate of 200 ppm, 6 days after infestation, read-out: control in at least one of the three categories (mortality, anti-feedant effect, or growth inhibition)
How it was run: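 L2 larvae (6-8 per well) were placed on dried artificial diet that had been dosed with aqueous dilutions of 10,000 ppm DMSO stock solutions. After 6 days, control was credited if mortality, antifeedant effect or growth inhibition was higher than in untreated samples.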

Diabrotica balteata = experiment: Example B2: Diabrotica balteata (corn root worm), maize sprouts, L2 larvae; conditions: 96 h, application rate of 200 ppm, 4 days after infestation, read-out: control in at least one of the two categories (mortality or growth inhibition)
Procedure: Example B2: Diabrotica balteata (Corn Root Worm)
Maize sprouts placed onto an agar layer in 24-well microtiter plates were treated with aqueous test solutions prepared from 10,000 ppm DMSO stock solutions by spraying. After drying, the plates were infested with L2 larvae (6 to 10 per well). The samples were assessed for mortality and growth inhibition in comparison to untreated samples 4 days after infestation.
The following compounds gave an effect of at least 80% control in at least one of the two categories (mortality or growth inhibition) at an application rate of 200 ppm: […]

Myzus persicae [2] = experiment: Example B7: Myzus persicae (green peach aphid), intrinsic activity, sucrose solution 24-well; conditions: 120 h, application rate of 12.5 ppm, 5 days after infestation, read-out: control (mortality)
From the text: Example B7: Myzus persicae (Green Peach Aphid). Intrinsic Activity
Test compounds prepared from 10,000 ppm DMSO stock solutions were applied by pipette into 24-well microtiter plates and mixed with sucrose solution. The plates were closed with a stretched Parafilm. A plastic stencil with 24 holes was placed onto the plate and infested pea seedlings were placed directly on the Parafilm. The infested plate was closed with a gel blotting paper and another plastic stencil and then turned upside down. The samples were assessed for mortality 5 days after infestation.
The following compounds gave an effect of at least 80% control at an application rate of 12.5 ppm: […]

Plutella xylostella = experiment: Example B8: Plutella xylostella (diamond back moth), artificial diet 24-well, eggs; conditions: 192 h, application rate of 200 ppm, 8 days after infestation, read-out: effect in at least one of the two categories (mortality or growth inhibition)
How it was run: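 Plutella eggs placed onto dried, compound-treated artificial diet, the aqueous test solutions diluted from 10,000 ppm DMSO stocks. Eight days post-infestation, larvae rated for mortality and growth inhibition relative to untreated controls.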

Spodoptera littoralis = experiment: Example B9: Spodoptera littoralis (Egyptian cotton leaf worm), cotton leaf discs, L1 larvae; conditions: foliar, 72 h, application rate of 200 ppm, 3 days after infestation, read-out: control in at least one of the three categories (mortality, anti-feedant effect, or growth inhibition)
How it was run: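 Five L1 larvae placed on sprayed, dried cotton leaf discs; spray solutions aqueous, from 10,000 ppm DMSO stocks. Control given when mortality, anti-feedant effect or growth inhibition exceeds untreated samples at 3 days.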

C[C@H](NC(=O)Nc1ccnn1-c1ccc(Cl)cn1)c1ncnn1-c1ncccn1 [Example P17, 1-[2-(5-chloro-2-pyridyl)pyrazol-3-yl]-3-[(1S)-1-(2-pyrimidin-2-yl-1,2,4-triazol-3-yl)ethyl]urea]
≥ 80%: mortality at 200 ppm (Myzus persicae [1])

C[C@H](NC(=O)Nc1cc(C(F)(F)F)ncn1)c1ncnn1-c1ncccn1 [Example P32, 1-[(1S)-1-(2-pyrimidin-2-yl-1,2,4-triazol-3-yl)ethyl]-3-[6-(trifluoromethyl)pyrimidin-4-yl]urea]
≥ 80%: mortality at 200 ppm (Myzus persicae [1])

C[C@H](NC(=O)Nc1ccc(Cl)c(OC(F)(F)C(F)F)c1)c1ncnn1-c1ncccn1 [Example P35, 1-[4-chloro-3-(1,1,2,2-tetrafluoroethoxy)phenyl]-3-[(1S)-1-(2-pyrimidin-2-yl-1,2,4-triazol-3-yl)ethyl]urea]
≥ 80%: percent control (mortality, anti-feedant effect or growth inhibition) at 200 ppm (Chilo suppressalis) | percent control (mortality or growth inhibition) at 200 ppm (Diabrotica balteata) | mortality at 12.5 ppm (Myzus persicae [2]) | percent effect (mortality or growth inhibition) at 200 ppm (Plutella xylostella) | percent control (mortality, anti-feedant effect or growth inhibition) at 200 ppm (Spodoptera littoralis)

C[C@H](NC(=O)Nc1cc(C(F)(F)F)c(Cl)cc1Br)c1ncnn1-c1ncccn1 [Example P48, 1-[2-bromo-4-chloro-5-(trifluoromethyl)phenyl]-3-[(1S)-1-(2-pyrimidin-2-yl-1,2,4-triazol-3-yl)ethyl]urea]
≥ 80%: percent control (mortality, anti-feedant effect or growth inhibition) at 200 ppm (Chilo suppressalis) | percent control (mortality or growth inhibition) at 200 ppm (Diabrotica balteata) | mortality at 12.5 ppm (Myzus persicae [2]) | percent effect (mortality or growth inhibition) at 200 ppm (Plutella xylostella) | percent control (mortality, anti-feedant effect or growth inhibition) at 200 ppm (Spodoptera littoralis)

C[C@H](NC(=O)N1CCc2cc(C(F)(F)F)ccc21)c1ncnn1-c1ncccn1 [Example P57, N-[(1S)-1-(2-pyrimidin-2-yl-1,2,4-triazol-3-yl)ethyl]-5-(trifluoromethyl)indoline-1-carboxamide]
≥ 80%: percent control (mortality or growth inhibition) at 200 ppm (Diabrotica balteata) | mortality at 12.5 ppm (Myzus persicae [2]) | percent effect (mortality or growth inhibition) at 200 ppm (Plutella xylostella) | percent control (mortality, anti-feedant effect or growth inhibition) at 200 ppm (Spodoptera littoralis)

C[C@H](NC(=O)Nc1cc(C(F)(F)F)cc(C(F)(F)F)n1)c1ncnn1-c1ncccn1 [Example P91, 1-[4,6-bis(trifluoromethyl)-2-pyridyl]-3-[(1S)-1-(2-pyrimidin-2-yl-1,2,4-triazol-3-yl)ethyl]urea]
≥ 80%: mortality at 200 ppm (Myzus persicae [1])

C[C@H](NC(=O)Nc1cc(C(F)(F)F)n(C)n1)c1ncnn1-c1ncccn1 [Example P108, 1-[1-methyl-5-(trifluoromethyl)pyrazol-3-yl]-3-[(1S)-1-(2-pyrimidin-2-yl-1,2,4-triazol-3-yl)ethyl]urea]
≥ 80%: mortality at 200 ppm (Myzus persicae [1])

C[C@H](NC(=O)Nc1cc(OCc2cccc(Br)n2)c(Cl)cc1Cl)c1ncnn1-c1ncccn1 [Example P145, 1-[5-[(6-bromo-2-pyridyl)methoxy]-2,4-dichloro-phenyl]-3-[(1S)-1-(2-pyrimidin-2-yl-1,2,4-triazol-3-yl)ethyl]urea]
≥ 80%: mortality at 200 ppm (Myzus persicae [1])

CC(NC(=O)Nc1cc(OC(F)(F)C(F)F)c(Cl)cc1Cl)c1ncnn1-c1ncccn1 (centres unmarked) [Example P177, 1-[2,4-dichloro-5-(1,1,2,2-tetrafluoroethoxy)phenyl]-3-[1-(2-pyrimidin-2-yl-1,2,4-triazol-3-yl)ethyl]urea]
≥ 80%: percent control (mortality, anti-feedant effect or growth inhibition) at 200 ppm (Chilo suppressalis) | percent control (mortality or growth inhibition) at 200 ppm (Diabrotica balteata) | mortality at 12.5 ppm (Myzus persicae [2]) | percent effect (mortality or growth inhibition) at 200 ppm (Plutella xylostella) | percent control (mortality, anti-feedant effect or growth inhibition) at 200 ppm (Spodoptera littoralis)

C[C@H](NC(=O)Nc1cc(C(F)(F)F)c(Cl)cc1Cl)c1ncnn1-c1ncccn1 [Example P178, 1-[2,4-dichloro-5-(trifluoromethyl)phenyl]-3-[(1S)-1-(2-pyrimidin-2-yl-1,2,4-triazol-3-yl)ethyl]urea]
≥ 80%: percent control (mortality, anti-feedant effect or growth inhibition) at 200 ppm (Chilo suppressalis) | percent control (mortality or growth inhibition) at 200 ppm (Diabrotica balteata) | mortality at 12.5 ppm (Myzus persicae [2]) | percent effect (mortality or growth inhibition) at 200 ppm (Plutella xylostella) | percent control (mortality, anti-feedant effect or growth inhibition) at 200 ppm (Spodoptera littoralis)

C[C@H](NC(=O)Nc1cc(OC(F)(F)F)c(Cl)cc1F)c1ncnn1-c1ncccn1 [Example P214, 1-[4-chloro-2-fluoro-5-(trifluoromethoxy)phenyl]-3-[(1S)-1-(2-pyrimidin-2-yl-1,2,4-triazol-3-yl)ethyl]urea]
≥ 80%: percent control (mortality, anti-feedant effect or growth inhibition) at 200 ppm (Chilo suppressalis) | percent control (mortality or growth inhibition) at 200 ppm (Diabrotica balteata) | mortality at 12.5 ppm (Myzus persicae [2]) | percent effect (mortality or growth inhibition) at 200 ppm (Plutella xylostella) | percent control (mortality, anti-feedant effect or growth inhibition) at 200 ppm (Spodoptera littoralis)

C[C@H](NC(=O)Nc1cc(OC(F)(F)C(F)C(F)(F)F)c(Cl)cc1F)c1ncnn1-c1ncccn1 (stereo partly drawn) [Example P215, 1-[4-chloro-2-fluoro-5-(1,1,2,3,3,3-hexafluoropropoxy)phenyl]-3-[(1S)-1-(2-pyrimidin-2-yl-1,2,4-triazol-3-yl)ethyl]urea]
≥ 80%: percent control (mortality, anti-feedant effect or growth inhibition) at 200 ppm (Chilo suppressalis) | percent control (mortality or growth inhibition) at 200 ppm (Diabrotica balteata) | mortality at 12.5 ppm (Myzus persicae [2]) | percent effect (mortality or growth inhibition) at 200 ppm (Plutella xylostella) | percent control (mortality, anti-feedant effect or growth inhibition) at 200 ppm (Spodoptera littoralis)

CC(C)Oc1cc(NC(=O)N[C@@H](C)c2ncnn2-c2ncccn2)c(Cl)cc1Cl [Example P236, 1-(2,4-dichloro-5-isopropoxy-phenyl)-3-[(1S)-1-(2-pyrimidin-2-yl-1,2,4-triazol-3-yl)ethyl]urea]
≥ 80%: percent control (mortality, anti-feedant effect or growth inhibition) at 200 ppm (Chilo suppressalis) | percent control (mortality or growth inhibition) at 200 ppm (Diabrotica balteata) | mortality at 12.5 ppm (Myzus persicae [2]) | percent effect (mortality or growth inhibition) at 200 ppm (Plutella xylostella) | percent control (mortality, anti-feedant effect or growth inhibition) at 200 ppm (Spodoptera littoralis)

CC(NC(=O)Nc1cc(OC(F)(F)C(F)F)c(Cl)cc1Cl)c1nccnc1-c1ncccn1 (centres unmarked) [Example P238, 1-[2,4-dichloro-5-(1,1,2,2-tetrafluoroethoxy)phenyl]-3-[1-(3-pyrimidin-2-ylpyrazin-2-yl)ethyl]urea]
≥ 80%: percent control (mortality, anti-feedant effect or growth inhibition) at 200 ppm (Chilo suppressalis) | percent control (mortality or growth inhibition) at 200 ppm (Diabrotica balteata) | mortality at 12.5 ppm (Myzus persicae [2]) | percent effect (mortality or growth inhibition) at 200 ppm (Plutella xylostella) | percent control (mortality, anti-feedant effect or growth inhibition) at 200 ppm (Spodoptera littoralis)

C[C@H](NC(=O)Nc1cnc(C(F)(F)F)cc1Cl)c1ncnn1-c1ccc(C#N)cn1 [Example P257, 1-[4-chloro-6-(trifluoromethyl)-3-pyridyl]-3-[(1S)-1-[2-(5-cyano-2-pyridyl)-1,2,4-triazol-3-yl]ethyl]urea]
≥ 80%: percent control (mortality, anti-feedant effect or growth inhibition) at 200 ppm (Chilo suppressalis) | percent control (mortality or growth inhibition) at 200 ppm (Diabrotica balteata) | mortality at 12.5 ppm (Myzus persicae [2]) | percent effect (mortality or growth inhibition) at 200 ppm (Plutella xylostella) | percent control (mortality, anti-feedant effect or growth inhibition) at 200 ppm (Spodoptera littoralis)

C[C@H](NC(=O)Nc1cc(OC(F)F)c(Cl)cc1Cl)c1ncnn1-c1ncccn1 [Example P272, 1-[2,4-dichloro-5-(difluoromethoxy)phenyl]-3-[(1S)-1-(2-pyrimidin-2-yl-1,2,4-triazol-3-yl)ethyl]urea]
≥ 80%: percent control (mortality, anti-feedant effect or growth inhibition) at 200 ppm (Chilo suppressalis) | percent control (mortality or growth inhibition) at 200 ppm (Diabrotica balteata) | mortality at 12.5 ppm (Myzus persicae [2]) | percent effect (mortality or growth inhibition) at 200 ppm (Plutella xylostella) | percent control (mortality, anti-feedant effect or growth inhibition) at 200 ppm (Spodoptera littoralis)

Cc1nc([C@H](C)NC(=O)Nc2cc(OC(F)(F)C(F)F)c(Cl)cc2Cl)n(-c2ncccn2)n1 [Example P276, 1-[2,4-dichloro-5-(1,1,2,2-tetrafluoroethoxy)phenyl]-3-[(1S)-1-(5-methyl-2-pyrimidin-2-yl-1,2,4-triazol-3-yl)ethyl]urea]
≥ 80%: percent control (mortality, anti-feedant effect or growth inhibition) at 200 ppm (Chilo suppressalis) | percent control (mortality or growth inhibition) at 200 ppm (Diabrotica balteata) | mortality at 12.5 ppm (Myzus persicae [2]) | percent effect (mortality or growth inhibition) at 200 ppm (Plutella xylostella) | percent control (mortality, anti-feedant effect or growth inhibition) at 200 ppm (Spodoptera littoralis)

C[C@H](NC(=O)Nc1cc(C(F)(F)F)c(Cl)cc1Br)c1ncnn1-c1cnccn1 [Example P279, 1-[2-bromo-4-chloro-5-(trifluoromethyl)phenyl]-3-[(1S)-1-(2-pyrazin-2-yl-1,2,4-triazol-3-yl)ethyl]urea]
≥ 80%: percent control (mortality, anti-feedant effect or growth inhibition) at 200 ppm (Chilo suppressalis) | percent control (mortality or growth inhibition) at 200 ppm (Diabrotica balteata) | percent effect (mortality or growth inhibition) at 200 ppm (Plutella xylostella) | percent control (mortality, anti-feedant effect or growth inhibition) at 200 ppm (Spodoptera littoralis)
